Experiments:
[1] = biological target: human NCX2 (Homo sapiens, UniProt Q9UPR5)
Protocol: (§1) The cultured cells were detached by application of iced PBS (phosphate buffered saline) or Trypsin at least 18 hours prior to electrophysiological experiments and replated on cover slips.
(§2) Two bath solutions and pipette solutions were prepared for patch clamp experiments with the following composition:
(§3) 135 mM NMG, 5 mM MgCl2, 2 mM CaCl2, 4 mM EGTA, 30 mM HEPES, pH 7.4
(§4) 139 mM NMG, 5 mM MgCl2, 2 mM CaCl2, 30 mM HEPES, pH 7.4
(§5) 100 mM NaCl, 5 mM KCl, 2 mM CaCl2, 2 mM MgCl2, 2.1 mM EGTA, 35 mM TEA-Cl, 4 mM Mg-ATP, 0.5 mM Na-GTP,
(§6) 5.63 mM Phosphocreatine, 30 mM HEPES, […] Creatine Phosphokinase (70 ml pipette solution+3500 U filtered Creatine Phosphokinase, ad 100 ml pipette solution), pH 7.4 (NaOH)
(§7) To inhibit NCX currents, 5 mM nickel chloride was dissolved in bath solution “high calcium”. NCX activity was measured using the patch clamp technique in the whole cell configuration. The cells were clamped at room temperature (20-25° C.) to a holding potential of 0 mV. NCX currents were evoked by application of 2 mM external calcium (bathsolution “high calcium”) for 4 seconds (=control). Calcium application was repeated every 20 s. After 5 stimulations, inhibition by nickel was tested using the same protocol but activation with calcium in the presence of 5 mM nickel (5 replicates). Finally, 5 calcium pulses were applied again for washout studies. To characterize NCX currents, peak currents, transported charge and the time constant of signal decay were investigated and analyzed according to the report. All data are presented as mean±SEM.

[2] = biological target: human NCX3 (Homo sapiens, UniProt P57103)
human NCX3, sequence (P57103 31-924 isoform P57103-6 limits assumed): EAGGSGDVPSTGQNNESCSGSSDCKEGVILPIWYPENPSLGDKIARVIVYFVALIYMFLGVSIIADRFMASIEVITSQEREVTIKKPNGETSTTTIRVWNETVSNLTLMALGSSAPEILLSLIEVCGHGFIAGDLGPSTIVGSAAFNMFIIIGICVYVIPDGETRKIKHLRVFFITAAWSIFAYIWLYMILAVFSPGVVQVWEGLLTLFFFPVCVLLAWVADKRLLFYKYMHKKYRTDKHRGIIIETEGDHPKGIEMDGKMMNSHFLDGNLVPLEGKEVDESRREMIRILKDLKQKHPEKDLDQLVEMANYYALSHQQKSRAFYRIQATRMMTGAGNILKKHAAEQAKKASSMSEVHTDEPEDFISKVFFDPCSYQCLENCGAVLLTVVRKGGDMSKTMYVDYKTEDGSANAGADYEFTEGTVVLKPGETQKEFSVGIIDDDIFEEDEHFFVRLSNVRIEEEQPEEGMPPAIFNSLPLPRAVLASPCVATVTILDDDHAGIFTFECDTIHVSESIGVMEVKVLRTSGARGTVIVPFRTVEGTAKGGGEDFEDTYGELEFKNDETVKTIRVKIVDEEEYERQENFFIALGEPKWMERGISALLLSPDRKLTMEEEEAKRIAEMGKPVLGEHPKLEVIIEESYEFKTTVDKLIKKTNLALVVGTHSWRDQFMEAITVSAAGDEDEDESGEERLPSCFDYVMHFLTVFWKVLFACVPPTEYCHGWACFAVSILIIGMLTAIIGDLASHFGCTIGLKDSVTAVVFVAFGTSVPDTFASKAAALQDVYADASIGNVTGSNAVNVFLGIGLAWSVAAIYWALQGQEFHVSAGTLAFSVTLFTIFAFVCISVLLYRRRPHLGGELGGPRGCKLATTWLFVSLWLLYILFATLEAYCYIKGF
Protocol: as §1, §2, §3, §4, §5, §6, §7

[3] = biological target: human NCX1 (Homo sapiens, UniProt P32418); settings: 5 mM nickel
Protocol: as §1, §2, §3, §4, §5, §6, §7

[4] = after 5 mM nickel, 5 calcium pulses for washout

human NCX2, sequence (Q9UPR5 21-921): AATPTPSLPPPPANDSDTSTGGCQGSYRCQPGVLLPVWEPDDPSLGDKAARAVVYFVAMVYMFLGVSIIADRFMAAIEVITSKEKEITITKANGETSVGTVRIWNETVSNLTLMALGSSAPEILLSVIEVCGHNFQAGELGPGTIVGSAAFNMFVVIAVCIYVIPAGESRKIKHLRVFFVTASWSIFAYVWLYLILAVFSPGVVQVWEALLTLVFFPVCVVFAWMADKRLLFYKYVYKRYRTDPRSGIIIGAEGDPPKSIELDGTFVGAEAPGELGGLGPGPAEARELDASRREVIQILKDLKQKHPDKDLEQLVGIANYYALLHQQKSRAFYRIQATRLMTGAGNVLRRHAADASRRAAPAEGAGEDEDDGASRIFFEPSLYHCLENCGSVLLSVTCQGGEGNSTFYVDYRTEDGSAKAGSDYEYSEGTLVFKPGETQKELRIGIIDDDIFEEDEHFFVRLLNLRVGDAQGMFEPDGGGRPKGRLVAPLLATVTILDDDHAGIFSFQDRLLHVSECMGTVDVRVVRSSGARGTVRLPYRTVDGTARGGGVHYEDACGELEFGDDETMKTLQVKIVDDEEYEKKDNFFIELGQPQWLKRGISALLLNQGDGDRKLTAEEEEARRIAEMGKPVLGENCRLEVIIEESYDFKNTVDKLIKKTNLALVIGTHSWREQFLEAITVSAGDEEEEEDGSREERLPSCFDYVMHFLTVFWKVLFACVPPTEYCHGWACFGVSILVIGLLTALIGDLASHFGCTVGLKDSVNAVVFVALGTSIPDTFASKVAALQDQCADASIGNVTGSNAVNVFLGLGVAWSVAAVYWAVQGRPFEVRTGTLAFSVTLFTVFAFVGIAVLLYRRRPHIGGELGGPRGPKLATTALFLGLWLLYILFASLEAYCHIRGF

## [Cl][Ni][Cl] [nickel, nickel chloride]
[1]; 5 mM nickel
  Block of NCX2 outward currents (in words): completely and reversible blocked
[1]; [4]
  Washout after nickel block, NCX2 currents: 100.2±1.9%
[2]; 5 mM nickel
  Block of NCX3 outward currents (in words): completely and reversible blocked
[2]; [4]
  Washout after nickel block, NCX3 currents: 111.5±2.4%
[3]
  Block of NCX1 outward currents (in words): completely and reversible blocked
[3]; reverse mode, 2 mM external Ca2+, holding potential 0 mV
  Block of NCX1 outward currents: 91.3±3.3%

Reference: US20110124033A1, “FLUORESCENCE BASED ASSAY TO DETECT SODIUM/CALCIUM EXCHANGER (NCX ) "REVERSE MODE" MODULATING COMPOUNDS” (SANOFI-AVENTIS, priority 2008, published 2011)
